Source: patent US5861424A, “Composition and method for treating cancer” (priority 1995, dated 1999)
Like-named read-outs stand apart in the source and are kept apart here.

Key:
[1] = test system: human colon carcinoma cell line CX-1; assay: Colony formation assay, human colon carcinoma CX-1; assay type: cell-based; conditions: Table III; for CX-1 (IC50) / IC50: 24 h treatment, colony count after 7 to 10 days; for Selectivity (ratio of IC50 for CV-1 and IC50 for CX-1): CV-1/CX-1; for IC50: Homo sapiens, Colon carcinoma cell, read-out: CX-1 (IC50)
[2] = test system: human melanoma LOX; assay: Survival of nude mice implanted with human melanoma LOX; assay type: in vivo, human melanoma in male athymic Swiss nu/nu mouse; conditions: Mus musculus, ip, 24 h, read-out: T/C (survival)
Procedure: LOX, a human melanoma cell line, grown subcutaneously in nude mice was excised, trypsinized to yield a single cell suspension using a metal grid with a […]. Red blood cells were lysed by incubation with 0.17 molar ammonium chloride at 4° C. for 20 minutes. Five million viable trypan blue negative cells made up in 0.1 ml of Dulbecco modified Eagles' medium (DME) were injected into the peritoneal cavity of a male athymic Swiss nu/nu mouse. The control group and each treatment group consisted of 5 to 10 mice. Treatment was commenced the following day by intraperitoneal injection.
Ten control mice received 0.25 ml of 2% dextrose on those days the treated groups were injected with the compounds of this invention. The compounds of the General Formulas. (1) to (6) used in this invention which were tested are listed in Table VIII below and the results obtained are shown in Table VIII and FIG. 1-6 of the accompanying drawings. T/C is the ratio, expressed as a percentage of the mean survival age of the treated group to the mean survival age of the untreated control group.

[3] = test system: normal monkey kidney epithelial cell line CV-1; assay: Colony formation assay, normal monkey kidney epithelial cells CV-1; conditions: for IC50: Primates, Epithelial cell;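 on all read-outs here: colonies visualized by crystal violet staining, incubation at 37 °C, IC50 relative to untreated wells given culture medium alone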
[4] = test system: human pancreatic carcinoma CRL 1420 cell line; assay: Colony formation assay, human pancreatic carcinoma CRL 1420; assay type: cell-based; conditions: Table VII; for IC50: Homo sapiens, 24 h; for Selectivity (CV-1 IC50 / CRL-1420 IC50): CV-1/CRL-1420
Description: (§1) The control received culture media only.
The Selectivity values, CRL 1420 values and CV-1 values for compounds of the General Formulas (1) to (6) used in the present invention are shown in Table VII below.

[5] = test system: human colon carcinoma CX-1; assay: Anti-human colon carcinoma CX-1 activity in nude mice, tumor inhibition; assay type: in vivo, human colon carcinoma in Swiss nu/nu mice; conditions: Mus musculus, ip, 24 h, 20 mg/kg
Description: Human colon carcinoma cell line CX-1 has been chosen by the National Cancer Institute as a mode for cancer drug screening (NCI Protocol 3C2H2). It was established in culture from the surgical explant of the primary colon adenocarcinoma of a person with no previous chemotherapy. The cultured CX-1 cells, upon subcutaneous injection, can grow readily in nude mice as a moderately- to well-differentiated human colon carcinoma. CEA is expressed as expected for differentiated colon carcinoma cells. Abundant keratin, consistent with epithelial origin, is present. Increased uptake and prolonged retention of delocalized lipophilic cations are observed.
Swiss nu/nu mice obtained from Taconic Farm were housed in a pathogen-free environment. Tumors subcutaneously passaged in nude mice were excised under sterile conditions and converted to a single cell suspension using a metal grid with a 0.4 mm mesh. Red blood cells were lysed by incubation with 0.17M ammonium chloride at 4° C. for 20 minutes. Cells were scored for viability with trypan blue. Viable CX-1 cells (2.5 million) made up in 0.1 ml of cell culture medium were injected subcutaneously into each nude mouse. The mice were randomly allocated into a control group (five mice) and a treatment group (five mice per group). The drug treatment was commenced the next day. Doses and schedules were developed empirically and were based mainly on information on LD50 and LD10 obtained from preliminary toxicity studies. The control group received an equivalent volume of hydroxylpropyl-β-cyclodextrin-5% glucose solution.
The pharmaceutical compositions tested comprised solutions in 5% glucose subjected to sonication at concentrations of 1 mg/ml. Those compounds which were not completely dissolved by this procedure were dissolved in hydroxypropyl-β-cyclodextrin using the following method. Hydroxypropyl-β-cyclodextrin (45 g) was mixed with 100 ml of sterilized, double distilled water and stirred for four hours. Each of the compounds to be tested (20 mg) was mixed with 10 ml of hydroxypropyl-β-cyclodextrin solution and sonicated for 60 minutes in the dark. This solution was then diluted in 5% glucose to yield a final compound concentration of 0.5 mg/ml, and further sonicated for 60 minutes in the dark to assure that the compound was completely dissolved.
When the growth of tumors in the control group reached the exponential phase and the size of the tumor was palpable (usually 20 to 30 days after tumor implantation), the experiments were terminated. Tumors in each mouse were excised and weighed using an analytical balance. Total tumor weight in each group from five mice was calculated. Per cent tumor inhibition between the treated group and the control group was then calculated for each group.

[6] = test system: human bladder carcinoma EJ cell line; assay: Colony formation assay, human bladder carcinoma EJ; assay type: cell-based; conditions: Table IV
Description: as §1

[7] = test system: human melanoma LOX cell line; assay: Colony formation assay, human melanoma LOX; assay type: cell-based; conditions: Table V; for Selectivity (CV-1 IC50 / LOX IC50): CV-1/LOX; for IC50: Homo sapiens, LOX, 24 h, read-out: LOX (IC50)
Description: as §1

[8] = test system: human breast carcinoma MCF-7 cell line; assay: Colony formation assay, human breast carcinoma MCF-7; assay type: cell-based; conditions: Table VI
Description: as §1
The Selectivity values, MCF-7 values and CV-1 values for compounds of the General Formulas (1) to (6) used in the present invention are shown in Table VI below.

[9] = Table III, 24 h treatment, colony count after 7 to 10 days
[10] = read-out: CV-1 (IC50), Table VII
[11] = read-out: CV-1 (IC50), Table III, 24 h treatment, colony count after 7 to 10 days

Compound	CX-1 (IC50) [1] [µg/mL]	Selectivity (ratio of IC50 for CV-1 and IC50 for CX-1) [1]	IC50 ([4]; 24 h treatment) [µg/mL]	Selectivity (CV-1 IC50 / CRL-1420 IC50) [4]	IC50 [3, 10] [µg/mL]	IC50 [1] [µg/mL]	IC50 [3, 11] [µg/mL]	Selectivity (CV-1 IC50 / LOX IC50) [7]	further results
CCN1CCSC1=CC=c1sc(=Cc2sc3c4ccccc4ccc3[n+]2CC)n(CC)c1=O [Compound 150]	0.01	100	–	–	–	–	–	–	response vs control in vivo at 5 mg/kg ([2]; i.p. on day 1, 2, 9, 13, 16): 216%; CV-1 (IC50) [3, 9]: 1 µg/mL
CCN1C(=CC=c2sc(=Cc3scc[n+]3CC)n(CC)c2=O)Sc2ccc3ccccc3c21 [Compound 41]	–	–	0.05	120	1.5	–	–	–	response vs control in vivo at 5 mg/kg ([2]; i.p. on day 1, 5, 9): 128%
C=CCn1c(=Cc2cc[n+](CC)c3ccccc23)sc(=CC=C2C=Cc3ccccc3N2CC)c1=O [Compound 249]	–	100	0.045	111	5	0.05	5	–	inhibition in vivo at 20 mg/kg ([5]; i.p. on day 1, 5, 7, 9): 41.1%
CCN1C(=CC=c2sc(=Cc3sc4c5ccccc5ccc4[n+]3C)n(CC)c2=O)Sc2ccc3ccccc3c21 [Compound 33]	–	1000	–	–	–	0.02	20	–	response vs control in vivo at 10 mg/kg ([2]; i.p. on day 1, 2, 3, 4, 5, 7, 8, 9, 10, 11): 173%
CCN1C(=CC=c2sc(=Cc3sc4c5ccccc5ccc4[n+]3C)n(CC)c2=O)Sc2ccc3ccccc3c21 [Compound 52]	0.03	> 667	–	> 333	–	–	–	> 250	EJ (IC50) ([6]; 24 h treatment): 0.05 µg/mL; Selectivity (CV-1 IC50 / EJ IC50) ([6]; CV-1/EJ): > 400; LOX (IC50) ([7]; 24 h treatment): 0.08 µg/mL; MCF-7 (IC50) ([8]; 24 h treatment): 0.03 µg/mL; Selectivity (CV-1 IC50 / MCF-7 IC50) ([8]; CV-1/MCF-7): > 666; CRL-1420 (IC50) ([4]; 24 h treatment): 0.06 µg/mL; response vs control in vivo at 10 mg/kg ([2]; i.p. on day 1, 2, 3, 6, 9): 168%; CV-1 (IC50) [3, 9]: > 20 µg/mL; CV-1 (IC50) ([3]; Table IV): > 20 µg/mL; CV-1 (IC50) ([3]; Table V): > 20 µg/mL; CV-1 (IC50) ([3]; Table VI): > 20 µg/mL; CV-1 (IC50) ([3]; Table VII): > 20 µg/mL
CCN1C(=CC=c2sc(=Cc3sc4c5ccccc5ccc4[n+]3CC)n(CC)c2=O)Sc2ccc3ccccc3c21 [Compound 51]	0.03	333	0.07	286	–	–	–	222	IC50 ([6]; Homo sapiens, EJ, 24 h, 24 h treatment, read-out: EJ (IC50)): 0.04 µg/mL; IC50 ([7]; 24 h treatment): 0.09 µg/mL; response vs control in vivo at 20 mg/kg ([2]; i.p. on day 1, 2, 3, 6, 9, 13): 174%
CCN1C(=CC=c2sc(=Cc3sc4c5ccccc5ccc4[n+]3CCO)n(CC)c2=O)Sc2ccc3ccccc3c21 [Compound 53]	–	400	0.18	111	20	0.05	20	–	response vs control in vivo at 20 mg/kg ([2]; i.p. on day 1, 3, 6, 9, 13, 16): 222%
CCN1C(C)=CSC1=CC=c1sc(=Cc2sc3ccccc3[n+]2CC)n(CC)c1=O [Compound 96]	0.03	667	–	–	–	–	–	222	IC50 ([7]; 24 h treatment): 0.09 µg/mL; response vs control in vivo at 2 mg/kg ([2]; 2 mg/kg, i.p. on day 1, 2, 3*, 6*, 9*, 13*, 16* (*4 mg/kg)): 253%; IC50 ([3]; read-out: CV-1 (IC50), Table V): 20 µg/mL
CCn1c(=Cc2sc3c4ccccc4ccc3[n+]2CC)sc(=CC=C2Sc3ccc4ccccc4c3N2C)c1=O [Compound 55]	–	–	–	–	–	–	–	–	inhibition in vivo at 20 mg/kg ([5]; i.p. on day 1, 4, 7, 11, 15, 18): 55.3%
